Source: the supplement of paper PMC10307832

Assays:
Experiment in all cases: relative viability (nuclei count vs DMSO), 5 days (fraction); higher = more cells survive
[1] = compound: COc1cc2ncn(-c3cc(OCc4ccccc4C(F)(F)F)c(C(N)=O)s3)c2cc1OC + CS(=O)(=O)N1CCN(Cc2cc3nc(-c4cccc5[nH]ncc45)nc(N4CCOCC4)c3s2)CC1 [Pictilisib] (partner 1 µM)
How it was run: (§1)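 Nuclei were stained with Hoechst during a one-step fixation (final 0.05% Triton X-100, 1% formaldehyde, 1 ug/ml Hoechst) carried out 5 days after dosing, then counted on 4× images. The cells, lung cancer lines in 1536-well plates, had been dosed by pin tool the day after seeding with one drug alone or a fixed anchor-drug dose plus five library-drug doses (not always all listed) in √10 steps. Relative viability is the nuclei count in treated wells divided by that in vehicle wells, and each value is the median of duplicate plates.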

[2] = compound: COc1cc2ncn(-c3cc(OCc4ccccc4C(F)(F)F)c(C(N)=O)s3)c2cc1OC + Cc1nc(NC(=O)N2CCC[C@H]2C(N)=O)sc1-c1ccnc(C(C)(C)C(F)(F)F)c1 [Alpelisib] (partner 2 µM)
How it was run: as §1

[3] = compound: COc1cc2ncn(-c3cc(OCc4ccccc4C(F)(F)F)c(C(N)=O)s3)c2cc1OC + N=C(N)NC(=N)NCCc1ccccc1 [Phenformin] (partner 250 µM)
How it was run: as §1

[4] = compound: COc1cc2ncn(-c3cc(OCc4ccccc4C(F)(F)F)c(C(N)=O)s3)c2cc1OC + NC(=O)Nc1cc(-c2cccc(F)c2)sc1C(=O)N[C@H]1CCCNC1 [AZD7762] (partner 0.2 µM)
How it was run: as §1

NCI-H1437 was tested, and the relative viability ([1]; first compound 0.05 µM) was 0.533, the relative viability ([1]; first compound 0.1581 µM) was 0.392 and the relative viability ([1]; first compound 0.5 µM) was 0.307. The relative viability ([1]; first compound 1.581 µM) was 0.0976, the relative viability ([1]; first compound 5 µM) was 0.0782 and the relative viability ([2]; first compound 0.05 µM) was 1.11. The relative viability ([2]; first compound 0.1581 µM) was 0.959, the relative viability ([2]; first compound 0.5 µM) was 0.187 and the relative viability ([2]; first compound 1.581 µM) was 0.12. It also gave a relative viability ([2]; first compound 5 µM) of 0.0887, a relative viability ([3]; first compound 0.05 µM) of 0.352 and a relative viability ([3]; first compound 0.1581 µM) of 0.223. The relative viability ([3]; first compound 0.5 µM) was 0.117, the relative viability ([3]; first compound 1.581 µM) was 0.123 and the relative viability ([3]; first compound 5 µM) was 0.12. It also gave a relative viability ([4]; first compound 0.05 µM) of 1.24, a relative viability ([4]; first compound 0.1581 µM) of 1.09 and a relative viability ([4]; first compound 0.5 µM) of 0.6. It also gave a relative viability ([4]; first compound 1.581 µM) of 0.198 and a relative viability ([4]; first compound 5 µM) of 0.154.

NCI-H1651 showed a relative viability ([1]; first compound 0.05 µM) of 0.662, a relative viability ([1]; first compound 0.1581 µM) of 0.7 and a relative viability ([1]; first compound 0.5 µM) of 0.616. It also gave a relative viability ([1]; first compound 1.581 µM) of 0.111, a relative viability ([1]; first compound 5 µM) of 0.102 and a relative viability ([2]; first compound 0.05 µM) of 0.98. The relative viability ([2]; first compound 0.1581 µM) was 0.95, the relative viability ([2]; first compound 0.5 µM) was 0.777 and the relative viability ([2]; first compound 1.581 µM) was 0.111. The relative viability ([2]; first compound 5 µM) was 0.0858, the relative viability ([3]; first compound 0.05 µM) was 0.318 and the relative viability ([3]; first compound 0.1581 µM) was 0.304. It also gave a relative viability ([3]; first compound 0.5 µM) of 0.132, a relative viability ([3]; first compound 1.581 µM) of 0.102 and a relative viability ([3]; first compound 5 µM) of 0.117. The relative viability ([4]; first compound 0.05 µM) was 0.415, the relative viability ([4]; first compound 0.1581 µM) was 0.518 and the relative viability ([4]; first compound 0.5 µM) was 0.32. For the same cell line, the relative viability ([4]; first compound 1.581 µM) was 0.37 and the relative viability ([4]; first compound 5 µM) was 0.303.

For NCI-H1666, the relative viability ([1]; first compound 0.05 µM) was 0.404, the relative viability ([1]; first compound 0.1581 µM) was 0.38 and the relative viability ([1]; first compound 0.5 µM) was 0.332. For the same cell line, the relative viability ([1]; first compound 1.581 µM) was 0.188, the relative viability ([1]; first compound 5 µM) was 0.193 and the relative viability ([2]; first compound 0.05 µM) was 1.22. It also gave a relative viability ([2]; first compound 0.1581 µM) of 0.834, a relative viability ([2]; first compound 0.5 µM) of 0.493 and a relative viability ([2]; first compound 1.581 µM) of 0.29. It also gave a relative viability ([2]; first compound 5 µM) of 0.292, a relative viability ([3]; first compound 0.05 µM) of 0.591 and a relative viability ([3]; first compound 0.1581 µM) of 0.554. For the same cell line, the relative viability ([3]; first compound 0.5 µM) was 0.337, the relative viability ([3]; first compound 1.581 µM) was 0.315 and the relative viability ([3]; first compound 5 µM) was 0.299. For the same cell line, the relative viability ([4]; first compound 0.05 µM) was 0.84, the relative viability ([4]; first compound 0.1581 µM) was 0.881 and the relative viability ([4]; first compound 0.5 µM) was 0.8. It also gave a relative viability ([4]; first compound 1.581 µM) of 0.555 and a relative viability ([4]; first compound 5 µM) of 0.483.

NCI-H1734 was tested, and the relative viability ([1]; first compound 0.05 µM) was 0.493, the relative viability ([1]; first compound 0.1581 µM) was 0.48 and the relative viability ([1]; first compound 0.5 µM) was 0.409. For the same cell line, the relative viability ([1]; first compound 1.581 µM) was 0.206, the relative viability ([1]; first compound 5 µM) was 0.172 and the relative viability ([2]; first compound 0.05 µM) was 0.784. The relative viability ([2]; first compound 0.1581 µM) was 0.721, the relative viability ([2]; first compound 0.5 µM) was 0.571 and the relative viability ([2]; first compound 1.581 µM) was 0.334. For the same cell line, the relative viability ([2]; first compound 5 µM) was 0.224, the relative viability ([3]; first compound 0.05 µM) was 0.417 and the relative viability ([3]; first compound 0.1581 µM) was 0.329. It also gave a relative viability ([3]; first compound 0.5 µM) of 0.322, a relative viability ([3]; first compound 1.581 µM) of 0.18 and a relative viability ([3]; first compound 5 µM) of 0.121. For the same cell line, the relative viability ([4]; first compound 0.05 µM) was 0.588, the relative viability ([4]; first compound 0.1581 µM) was 0.608 and the relative viability ([4]; first compound 0.5 µM) was 0.511. For the same cell line, the relative viability ([4]; first compound 1.581 µM) was 0.18 and the relative viability ([4]; first compound 5 µM) was 0.134.

NCI-H1755 gave a relative viability ([1]; first compound 0.05 µM) of 0.457, a relative viability ([1]; first compound 0.1581 µM) of 0.371 and a relative viability ([1]; first compound 0.5 µM) of 0.355. The relative viability ([1]; first compound 1.581 µM) was 0.203, the relative viability ([1]; first compound 5 µM) was 0.169 and the relative viability ([2]; first compound 0.05 µM) was 0.945. For the same cell line, the relative viability ([2]; first compound 0.1581 µM) was 0.953, the relative viability ([2]; first compound 0.5 µM) was 0.716 and the relative viability ([2]; first compound 1.581 µM) was 0.352. For the same cell line, the relative viability ([2]; first compound 5 µM) was 0.262, the relative viability ([3]; first compound 0.05 µM) was 0.572 and the relative viability ([3]; first compound 0.1581 µM) was 0.622. It also gave a relative viability ([3]; first compound 0.5 µM) of 0.531, a relative viability ([3]; first compound 1.581 µM) of 0.319 and a relative viability ([3]; first compound 5 µM) of 0.243. For the same cell line, the relative viability ([4]; first compound 0.05 µM) was 0.431, the relative viability ([4]; first compound 0.1581 µM) was 0.525 and the relative viability ([4]; first compound 0.5 µM) was 0.397. It also gave a relative viability ([4]; first compound 1.581 µM) of 0.373 and a relative viability ([4]; first compound 5 µM) of 0.259.

NCI-H1792 gave a relative viability ([1]; first compound 0.05 µM) of 0.278, a relative viability ([1]; first compound 0.1581 µM) of 0.254 and a relative viability ([1]; first compound 0.5 µM) of 0.158. It also gave a relative viability ([1]; first compound 1.581 µM) of 0.0865, a relative viability ([1]; first compound 5 µM) of 0.109 and a relative viability ([2]; first compound 0.05 µM) of 0.732. For the same cell line, the relative viability ([2]; first compound 0.1581 µM) was 0.659, the relative viability ([2]; first compound 0.5 µM) was 0.501 and the relative viability ([2]; first compound 1.581 µM) was 0.31. It also gave a relative viability ([2]; first compound 5 µM) of 0.364, a relative viability ([3]; first compound 0.05 µM) of 0.324 and a relative viability ([3]; first compound 0.1581 µM) of 0.279. It also gave a relative viability ([3]; first compound 0.5 µM) of 0.256, a relative viability ([3]; first compound 1.581 µM) of 0.0695 and a relative viability ([3]; first compound 5 µM) of 0.0567. The relative viability ([4]; first compound 0.05 µM) was 0.61, the relative viability ([4]; first compound 0.1581 µM) was 0.71 and the relative viability ([4]; first compound 0.5 µM) was 0.472. For the same cell line, the relative viability ([4]; first compound 1.581 µM) was 0.0325 and the relative viability ([4]; first compound 5 µM) was 0.0304.

With NCI-H1793 the relative viability ([1]; first compound 0.05 µM) was 0.272, the relative viability ([1]; first compound 0.1581 µM) was 0.308 and the relative viability ([1]; first compound 0.5 µM) was 0.179. The relative viability ([1]; first compound 1.581 µM) was 0.192, the relative viability ([1]; first compound 5 µM) was 0.228 and the relative viability ([2]; first compound 0.05 µM) was 0.611. For the same cell line, the relative viability ([2]; first compound 0.1581 µM) was 0.745, the relative viability ([2]; first compound 0.5 µM) was 0.394 and the relative viability ([2]; first compound 1.581 µM) was 0.22. The relative viability ([2]; first compound 5 µM) was 0.191, the relative viability ([3]; first compound 0.05 µM) was 0.367 and the relative viability ([3]; first compound 0.1581 µM) was 0.413. It also gave a relative viability ([3]; first compound 0.5 µM) of 0.182, a relative viability ([3]; first compound 1.581 µM) of 0.17 and a relative viability ([3]; first compound 5 µM) of 0.136. The relative viability ([4]; first compound 0.05 µM) was 0.463, the relative viability ([4]; first compound 0.1581 µM) was 0.407 and the relative viability ([4]; first compound 0.5 µM) was 0.301. For the same cell line, the relative viability ([4]; first compound 1.581 µM) was 0.148 and the relative viability ([4]; first compound 5 µM) was 0.103.

NCI-H1915 was tested, and the relative viability ([1]; first compound 0.05 µM) was 0.988, the relative viability ([1]; first compound 0.1581 µM) was 0.857 and the relative viability ([1]; first compound 0.5 µM) was 0.799. It also gave a relative viability ([1]; first compound 1.581 µM) of 0.111, a relative viability ([1]; first compound 5 µM) of 0.0806 and a relative viability ([2]; first compound 0.05 µM) of 1.05. It also gave a relative viability ([2]; first compound 0.1581 µM) of 0.987, a relative viability ([2]; first compound 0.5 µM) of 0.775 and a relative viability ([2]; first compound 1.581 µM) of 0.161. It also gave a relative viability ([2]; first compound 5 µM) of 0.104, a relative viability ([3]; first compound 0.05 µM) of 0.373 and a relative viability ([3]; first compound 0.1581 µM) of 0.361. It also gave a relative viability ([3]; first compound 0.5 µM) of 0.286, a relative viability ([3]; first compound 1.581 µM) of 0.0964 and a relative viability ([3]; first compound 5 µM) of 0.0866. The relative viability ([4]; first compound 0.05 µM) was 0.709, the relative viability ([4]; first compound 0.1581 µM) was 0.862 and the relative viability ([4]; first compound 0.5 µM) was 0.597. The relative viability ([4]; first compound 1.581 µM) was 0.161 and the relative viability ([4]; first compound 5 µM) was 0.097.
